Laboratory results: patent US11077078B2, “Compositions and methods for the treatment of cancer” (KoDiscovery, LLC, priority 2006, dated 2021)

Assays:
metastatic lung tumors = test: Metastatic lung cancer study in rabbits, IP port delivery (FIG. 4); settings: dissected lungs
[1] = test system: human prostate cancer cells; test: Cell viability/proliferation of human prostate cancer cells vs various anti-cancer agents (FIG. 9); assay type: cell-based
Description: The anti-cancer compositions described herein can be used to treat any cancer having increased glycolysis; the metabolic phenotype referred to as the “Warburg Effect”, as described above. In another embodiment, the anti-cancer compositions can be used to treat any cancer that can be detected by Positron Emission Tomography (PET), which detects this metabolic phenotype. For example, FIG. 5 illustrates a reaction scheme for PET scanning. Human cancer cell lines that the present anti-cancer composition has shown to be effective against include liver, cervical, ovarian, lung, breast, colon, neuroblastoma, medulloblastoma, prostate, skin, pancreatic, childhood fibrolamellar hepatocellular carcinoma (FHCC), hepatocellular carcinoma (HCC), non small cell lung cancer. For example, FIG. 9 depicts a bar graph showing various cancer drugs effects on human prostate cancer cells. […] As such, the present cancers that can be treated with the present anti-cancer compositions can be selected from the group consisting of liver, cervical, ovarian, lung, breast, colon, neuroblastoma, medulloblastoma, prostate, skin, pancreatic, childhood fibrolamellar hepatocellular carcinoma (FHCC), hepatocellular carcinoma (HCC), non small cell lung cancer. […]

[2] = test system: Hepatocellular carcinoma cells; test: Rat hepatocellular carcinoma study: cancer cell viability vs μM of anti-cancer agents (FIG. 3); settings: 23 hour period; 3-bromopyruvate with as little as 20 μM
liver cancer cells = test: Photographs of liver cancer cells treated with 3BP (FIG. 2); assay type: cell-based
Description: The presently disclosed cellular energy inhibitors, shown as 3-bromopyruvate (3BP) (a lactic acid analog) in FIG. 1, are small chemicals and can mimic the lactic acid chemical structure; depicted as a small diamond in FIG. 1. Therefore, cellular energy inhibitors disguised as lactic acid can “trick” the cancer cells and enter like a Trojan horse (FIG. 1). The inhibitors have little effect on normal cells as these contain very few lactic acid transporters. Because of the present cellular energy inhibitors' highly reactive nature, it can destroy the two energy production factories (FIG. 1; one diamond above the hexokinase (HK), shown as 3BP is destroying one energy production factory, i.e., glycolysis, and another red diamond inside the mitochondrion means that 3BP is destroying also this energy production factory). As a result, the cellular energy (ATP) can be depleted very rapidly by cellular energy inhibitors; 3BP in FIG. 1, attack the two factories at the same time causing the cancer cells to rapidly explode (cell membrane rupturing). […] Here, the healthy cancer cells are round and iridescent (left picture).

Compound: O=C(O)C(=O)CBr [3-Bromopyruvate, 3-bromopyruvate]
- metastatic lung cancer after treatment (metastatic lung tumors): no metastatic lung cancer
- stopping cancer cell proliferation vs other known chemo-agents [1]: better than other known chemo-agents in stopping cancer cell proliferation
- cell viability [2]: approx. 5%
- cell morphology / death after treatment (liver cancer cells): the cell membranes rupture
